Data from patent publication US4251516A, “2-Deoxy-3-O-Demethylfortimicins” (Abbott Laboratories, priority 1979, dated 1981).
Where a name gives a salt, the structure may show the parent alone. Read-outs that look alike come from different tables or passages of the source.

Key:
Test in all cases: two-fold agar dilution MIC, Mueller-Hinton agar
Type in all cases: cell-based
Shigella sonnei 9290 = details: 37° C., 24 hours, read-out: Minimum Inhibitory Concentration
Method: (§1) The in vitro antibiotic activities are determined by a two-fold agar dilution method using Mueller-Hinton agar, 10 ml per Petri dish. The agar is inoculated with one loopful (0.001 ml loop) of a 1:10 dilution of a 24 hour broth culture of the indicated test organism and incubated at 37° C. for 24 hours. Appropriate fortimicins are used as control antibiotics. The activities, listed in the following Table I, minimum inhibitory concentrations(MIC) are expressed in mcg/ml.

[1] = test system: Pseudomonas aeruginosa KY 8512; details: read-out: Minimum Inhibitory Concentration
Method: as §1

[2] = test system: Pseudomonas aeruginosa BMH #10; details: read-out: Minimum Inhibitory Concentration
Method: as §1

[3] = test system: Pseudomonas aeruginosa 27853; details: read-out: Minimum Inhibitory Concentration
Method: as §1

[4] = test system: Staphyloccocus aureus Smith; details: Staphylococcus aureus, read-out: Minimum Inhibitory Concentration
Method: as §1

[5] = test system: Pseudomonas aeruginosa KY 8516; details: read-out: Minimum Inhibitory Concentration
Method: as §1

[6] = test system: Enterobacter aerogenes 13048; details: read-out: Minimum Inhibitory Concentration
Method: as §1

[7] = test system: Streptoccocus faecalis 10541; details: read-out: Minimum Inhibitory Concentration
Method: as §1

[8] = test system: Salmonella typhimurium Ed #9; details: Salmonella enterica, read-out: Minimum Inhibitory Concentration
Method: as §1

Serratia marcescens 4003 = details: read-out: Minimum Inhibitory Concentration
Method: as §1

Proteus vulgaris JJ = details: read-out: Minimum Inhibitory Concentration
Method: as §1

Providencia 1577 = details: read-out: Minimum Inhibitory Concentration
Method: as §1

[9] = test system: Pseudomonas aeruginosa 209; details: read-out: Minimum Inhibitory Concentration
Method: as §1

Escherichia coli Juhl = details: read-out: Minimum Inhibitory Concentration
Method: as §1

[10] = test system: Proteus mirabilis Fin. #9; details: read-out: Minimum Inhibitory Concentration
Method: as §1

[11] = test system: Klebsiella pneumoniae 10031; details: read-out: Minimum Inhibitory Concentration
Method: as §1

[12] = test system: Escherichia coli BL 3676(Res); details: read-out: Minimum Inhibitory Concentration
Method: as §1

[13] = KY8512, Pseudomonas aeruginosa KY 8512, agar dilution, 37° C., 24 hours
[14] = Pseudomonas aeruginosa BMH #10, agar dilution, 37° C., 24 hours
[15] = Staphyloccocus aureus Smith, agar dilution, 37° C., 24 hours
[16] = KY8516, Pseudomonas aeruginosa KY 8516, agar dilution, 37° C., 24 hours
[17] = Klebsiella aerogenes, Enterobacter aerogenes 13048, agar dilution, 37° C., 24 hours
[18] = Streptoccocus faecalis 10541, agar dilution, 37° C., 24 hours
[19] = Salmonella typhimurium Ed #9, agar dilution, 37° C., 24 hours
[20] = Serratia marcescens 4003, agar dilution, 37° C., 24 hours
[21] = Proteus vulgaris JJ, agar dilution, 37° C., 24 hours
[22] = Providencia 1577, agar dilution, 37° C., 24 hours
[23] = Pseudomonas aeruginosa 209, agar dilution, 37° C., 24 hours
[24] = Escherichia coli Juhl, agar dilution, 37° C., 24 hours
[25] = Proteus mirabilis Fin. #9, agar dilution, 37° C., 24 hours
[26] = Klebsiella pneumoniae 10031, agar dilution, 37° C., 24 hours
[27] = Pseudomonas aeruginosa, KY8512, 24 h
[28] = Pseudomonas aeruginosa, 27853, 24 h
[29] = Escherichia coli BL 3676(Res), agar dilution, 37° C., 24 hours

Structure (SMILES) | MIC (Shigella sonnei 9290) [µg/mL] | MIC [1, 13] [µg/mL] | MIC [2, 14] [µg/mL] | MIC [4, 15] [µg/mL] | MIC [5, 16] [µg/mL] | MIC [6, 17] [µg/mL] | MIC [7, 18] [µg/mL] | MIC [8, 19] [µg/mL] | MIC (Serratia marcescens 4003; [20]) [µg/mL] | MIC (Proteus vulgaris JJ; [21]) [µg/mL] | MIC (Providencia 1577; [22]) [µg/mL] | MIC [9, 23] [µg/mL] | MIC (Escherichia coli Juhl; [24]) [µg/mL] | MIC [10, 25] [µg/mL] | MIC [11, 26] [µg/mL] | MIC ([12]; Escherichia coli, 24 h) [µg/mL] | MIC [1, 27] [µg/mL] | MIC [3, 28] [µg/mL] | MIC [12, 29] [µg/mL] | other results
CC(N)C1CCC(N)C(OC2C(N)CC(O)C(N(C)C(=O)CN)C2O)O1 (stereo not shown) [2-Deoxy-3-O-demethylfortimicin A . 4HCl, 2-Deoxy-3-O-Demethylfortimicin A tetrahydrochloride] | 12.5 | 3.1 | 0.78 | 0.39 | 100 | 3.1 | 50 | 1.56 | 3.1 | 3.1 | 1.56 | 100 | 6.2 | 3.1 | 3.1 | 12.5 |  |  |  | MIC ([3]; Pseudomonas aeruginosa 27853, agar dilution, 37° C., 24 hours): 6.2 µg/mL
COC1CC(N)C(OC2OC(C(C)N)CCC2N)C(O)C1N(C)C(=O)CN (stereo not shown) [2-Deoxyfortimicin A . 4 HCl, 2-Deoxyfortimicin A tetrahydrochloride] | 12.5 |  | 0.78 | 0.78 | 50 | 3.1 | 50 | 1.56 | 3.1 | 3.1 | 3.1 | 100 | 6.2 | 6.2 | 1.56 |  | 12.5 | 12.5 | 25 | 
CC(N)C1CCC(N)C(OC2C(N)C(O)C(O)C(N(C)C(=O)CN)C2O)O1 (stereo not shown) [3-O-Demethylfortimicin A . 4HCl, 3-O-demethylfortimicin A tetrahydrochloride] | 4.3 | 2.1 | 0.27 | 0.54 | 69 | 2.1 | 17 | 1.1 | 4.3 | 2.1 | 1.1 | 69 | 2.1 | 2.1 | 1.1 |  |  |  | 8.6 | 
COC1C(O)C(N)C(OC2OC(C(C)N)CCC2N)C(O)C1N(C)C(=O)CN (stereo not shown) [Fortimicin A . 4HCl, fortimicin A tetrahydrochloride] | 12.5 |  |  |  |  |  |  |  |  |  |  |  |  |  |  | 25 | 12.5 | 12.5 |  | MIC ([2]; Pseudomonas aeruginosa, 24 h): 0.78 µg/mL; MIC ([4]; 24 h): 0.78 µg/mL; MIC ([5]; Pseudomonas aeruginosa, KY8516, 24 h): 100 µg/mL; MIC ([6]; Klebsiella aerogenes, 13048, 24 h): 3.1 µg/mL; MIC ([7]; 24 h): 50 µg/mL; MIC ([8]; TYPHIMURIUM, 24 h): 1.56 µg/mL; MIC (Serratia marcescens 4003; Serratia marcescens, 4003, 24 h): 3.1 µg/mL; MIC (Proteus vulgaris JJ; Proteus vulgaris, 24 h): 3.1 µg/mL; MIC (Providencia 1577; Providencia, 1577, 24 h): 6.2 µg/mL; MIC ([9]; Pseudomonas aeruginosa, 209, 24 h): 100 µg/mL; MIC (Escherichia coli Juhl; Escherichia coli, 24 h): 6.2 µg/mL; MIC ([10]; Proteus mirabilis, 24 h): 6.2 µg/mL; MIC ([11]; Klebsiella pneumoniae, 10031, 24 h): 3.1 µg/mL
